Test results from patent publication US4539410A, “N-Substituted-2-(1-imidazolyl)indoles” (priority 1983, dated 1985).

Legend:
[1] = target: T1, thromboxane synthetase from lysed human platelets (Homo sapiens, UniProt P24557); assay: in vitro inhibition of thromboxane synthetase (14C-arachidonic acid, TxB2/PGF2 α+β ratio); assay type: biochemical; conditions: concentration at which ratio TxB2/PGF2 α+β is reduced to 50% of control; 30 minutes incubation
T1 construct: crude microsomal preparation of thromboxane synthetase from lysed human platelets; from tissue; host or cells: human platelets (lysed), crude microsomal preparation
T1 sequence (P24557 1-533): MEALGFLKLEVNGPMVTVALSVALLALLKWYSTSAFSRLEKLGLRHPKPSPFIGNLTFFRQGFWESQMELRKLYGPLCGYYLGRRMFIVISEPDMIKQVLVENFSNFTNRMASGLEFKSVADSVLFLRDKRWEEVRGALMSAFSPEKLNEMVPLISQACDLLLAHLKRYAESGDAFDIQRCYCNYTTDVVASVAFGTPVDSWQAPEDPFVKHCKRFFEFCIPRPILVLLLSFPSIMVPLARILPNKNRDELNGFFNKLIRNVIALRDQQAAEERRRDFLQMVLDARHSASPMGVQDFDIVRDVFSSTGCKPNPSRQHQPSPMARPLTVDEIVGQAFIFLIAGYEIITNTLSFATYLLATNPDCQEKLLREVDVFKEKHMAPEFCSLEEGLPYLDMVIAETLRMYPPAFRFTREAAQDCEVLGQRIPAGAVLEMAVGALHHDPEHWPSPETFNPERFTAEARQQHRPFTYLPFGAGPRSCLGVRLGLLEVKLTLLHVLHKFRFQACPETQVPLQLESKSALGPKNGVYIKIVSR
Experimental: Res. Comm. 74, 1432 (1977); the testing procedure is as follows:
^14 C-Arachidonic acid is incubated with an enzyme mixture preparation consisting of solubilized and partially purified prostaglandin cyclo-oxygenase from sheep seminal vesicles and a crude microsomal preparation of thromboxane synthetase from lysed human platelets. The test compound (dissolved in buffer, or if necessary, in a small amount of ethanol) is added to the incubation medium. At the end of the incubation period (30 minutes), Prostaglandin E2 (PGE2) is reduced to a mixture of Prostaglandin F2 α and F2 β (PGF2 α+β) by addition of sodium borohydride. The radioactive products and excess substrate are extracted into ethyl acetate; the extract is evaporated to dryness; the residue is dissolved in acetone, spotted on thin-layer plates and chromatographed in the solvent system toluene:acetone:glacial acetic acid (100 volumes:100 volumes:3 volumes). The radioactive zones are located; those corresponding to Thromboxane B2 (T×B2) and PGF2 α+β are transferred to liquid scintillation vials and counted. The ratio of counts for T×B2 /PGF2 α+β is calculated for each concentration of test compound and IC50 values are determined graphically as the concentration of test compound at which the ratio of T×B2 /PGF2 α+β is reduced to 50% of the control value.

[2] = system: thromboxane B2 plasma level; assay: in vivo reduction of plasma thromboxane B2 in rats after ionophore A23187; conditions: oral dose as low as 0.20 mg/kg
Experimental: (§1) The inhibition of the synthesis and the reduction of plasma levels of thromboxane is determined in vivo on administration to rats in the following manner (as adapted from the procedures described by Tai et al. in Anal. Biochem. 87:343, 1978 and by Salmon in Prostaglandins 15:383, 1978):
(§2) Rats are dosed with vehicle or test drug and injected intravenously with inophore A23187 (0.5 mg/kg) two hours later. Blood is collected for analysis 2 minutes after the ionophore injection. A single aliquot of each plasma sample is assayed for thromboxane B2 and another aliquot for 6-keto-PGF1 α, the stable metabolites of thromboxane A2 and prostacyclin (PGI2) respectively, by radioimmunoassay.

[3] = system: prostacyclin (PGI2) plasma level; assay: in vivo plasma prostacyclin (6-keto-PGF1 α) in rats after ionophore A23187; conditions: oral, at 0.20 mg/kg or a higher dose
Experimental: as §1, §2

Cc1c(-n2ccnc2)n(CCCCCC(=O)O)c2ccccc12.Cl [Example 3, 1-(5-carboxypentyl)-2-(1-imidazolyl)-3-methylindole hydrochloride]
IC50 [1]: 2.3 nM | decrease of the plasma concentration of thromboxane B2 [2]: over 50% | plasma level of prostacyclin [3]: increase in the plasma level of prostacyclin occurs
